Source: patent publication US10189837B2, “Crystalline (8S,9R)-5-fluoro-8-(4-fluorophenyl)-9-(1-methyl-1H-1,2,4-triazol-5-yl)-8,9-dihydro-2H-pyrido[4,3,2-de]phthalazin-3(7H)-one tosylate salt” (Medivation Technologies, LLC, priority 2010, dated 2019)

Assays:
Assay type in all cases: physicochemical
[1] = Thermogravimetric analysis (TGA); details: for Weight Change: ramp 10.00 °C/min to 300.00 °C; for % Change in weight: ramp 10.00 °C/min to 400.00 °C
Procedure: Unless otherwise noted, TGA thermograms were acquired using a TA Instruments Q500 Thermogravimetric Analyzer (New Castle, Del., USA). Samples were weighed out into the pan. Except as noted below, the temperature was ramped from 25.00° C. to 400.00° C. at 10.00° C./minute.
A TGA thermogram for tosylate salt prepared using the steps described in Variation 2 was acquired using a Mettler Toledo Thermogravimetric Analyzer/Differential Scanning Calorimeter 1. The temperature was ramped from 25° C. to 400° C. at 10° C./minute.

[2] = Dynamic vapor sorption (DVS) isotherm
Procedure: 1 model from Surface Measurement Systems Ltd. (Alperton, Middlesex, UK). A moisture adsorption desorption isotherm was performed as outlined below. The standard isotherm run is a cycle starting at RH 0% to RH 95% at 5% intervals, followed by drying to RH 0% in 5% RH intervals.

[3] = Thermogravimetric analysis (TGA); details: ramp 10.00 °C/min to 300.00 °C
[4] = TGA, start about 25 °C, stop 120 °C, tosylate salt
[5] = TGA, start about 25 °C, stop 250 °C, tosylate salt

Cc1ccc(S(=O)(=O)O)cc1.Cn1ncnc1[C@H]1c2n[nH]c(=O)c3cc(F)cc(c23)N[C@@H]1c1ccc(F)cc1 [(8S,9R)-5-fluoro-8-(4-fluorophenyl)-9-(1-methyl-1H-1,2,4-triazol-5-yl)-8,9-dihydro-2H-pyrido[4,3,2-de]phthalazin-3(7H)-one mono-tosylate salt]
stability to heat (TGA trace) ([1]; 25 °C to 400 °C at 10 °C/minute, prior to the onset of decomposition at the melting point): stable to heat | hygroscopicity (DVS) ([2]; 25 °C, humidity 0% to 95%): not hygroscopic | weight gain (DVS) ([2]; 25 °C, humidity increased from 0% to 95%): less than 1% | Change in Mass (%) Desorption ([2]; Target % P/Po 0.0): −0.0015% | Change in Mass (%) Desorption ([2]; Target % P/Po 5.0): 0.0203% | Change in Mass (%) Desorption ([2]; Target % P/Po 10.0): 0.0326% | Change in Mass (%) Desorption ([2]; Target % P/Po 15.0): 0.0421% | Change in Mass (%) Desorption ([2]; Target % P/Po 20.0): 0.0513% | Change in Mass (%) Desorption ([2]; Target % P/Po 25.0): 0.0649% | Change in Mass (%) Desorption ([2]; Target % P/Po 30.0): 0.0791% | Change in Mass (%) Desorption ([2]; Target % P/Po 35.0): 0.0947% | Change in Mass (%) Desorption ([2]; Target % P/Po 40.0): 0.1084% | Change in Mass (%) Desorption ([2]; Target % P/Po 45.0): 0.1266% | Change in Mass (%) Desorption ([2]; Target % P/Po 50.0): 0.1456% | Change in Mass (%) Desorption ([2]; Target % P/Po 55.0): 0.1668% | Change in Mass (%) Desorption ([2]; Target % P/Po 60.0): 0.1895% | Change in Mass (%) Desorption ([2]; Target % P/Po 65.0): 0.2192% | Change in Mass (%) Desorption ([2]; Target % P/Po 70.0): 0.2535% | Change in Mass (%) Desorption ([2]; Target % P/Po 75.0): 0.2919% | Change in Mass (%) Desorption ([2]; Target % P/Po 80.0): 0.3402% | Change in Mass (%) Desorption ([2]; Target % P/Po 85.0): 0.4113% | Change in Mass (%) Desorption ([2]; Target % P/Po 90.0): 0.5230% | Change in Mass (%) Desorption ([2]; Target % P/Po 95.0): 0.7473%

Cn1ncnc1[C@H]1c2n[nH]c(=O)c3cc(F)cc(c23)N[C@@H]1c1ccc(F)cc1 [compound 1, (8S,9R)-5-fluoro-8-(4-fluorophenyl)-9-(1-methyl-1H-1,2,4-triazol-5-yl)-8,9-dihydro-2H-pyrido[4,3,2-de]phthalazin-3(7H)-one]
Weight Change ([1]; TGA at 225 °C): 9.125% | Weight Change ([1]; TGA at 252 °C): 9.265% | Weight Change ([3]; TGA at 120 °C): 1.45% | Weight Change ([3]; TGA at 238 °C): 9.214% | Weight Change ([3]; TGA at […]): 4.068%

Cn1ncnc1[C@H]1c2n[nH]c(=O)c3cc(F)cc(c23)N[C@@H]1c1ccc(F)cc1 [compound 3, (8S,9R)-5-fluoro-8-(4-fluorophenyl)-9-(1-methyl-1H-1,2,4-triazol-5-yl)-8,9-dihydro-2H-pyrido[4,3,2-de]phthalazin-3(7H)-one]
Weight Change ([1]; TGA at 152 °C): 2.584% | Weight Change ([1]; TGA at 205 °C): 3.42% | Weight Change ([1]; TGA at 250 °C): 5.193% | Weight Change ([3]; TGA at 120 °C): 2.33% | Weight Change ([3]; TGA at 178 °C): 2.829%

Cc1ccc(S(=O)(=O)O)cc1.Cn1ncnc1[C@H]1c2n[nH]c(=O)c3cc(F)cc(c23)N[C@@H]1c1ccc(F)cc1 [compound 5, (8S,9R)-5-fluoro-8-(4-fluorophenyl)-9-(1-methyl-1H-1,2,4-triazol-5-yl)-8,9-dihydro-2H-pyrido[4,3,2-de]phthalazin-3(7H)-one tosylate salt]
% Change in weight ([1]; TGA, start 25.13 °C, stop 340.46 °C): 43.54% | % Change in weight [1, 4]: 0.1231% | % Change in weight [1, 5]: 0.2894%

Cc1ccc(S(=O)(=O)O)cc1.Cn1ncnc1[C@H]1c2n[nH]c(=O)c3cc(F)cc(c23)N[C@@H]1c1ccc(F)cc1 [compound 6, (8S,9R)-5-fluoro-8-(4-fluorophenyl)-9-(1-methyl-1H-1,2,4-triazol-5-yl)-8,9-dihydro-2H-pyrido[4,3,2-de]phthalazin-3(7H)-one tosylate salt]
% Change in weight ([1]; TGA, start 25.2 °C, stop 338.56 °C): 24.56% | % Change in weight [1, 4]: 0.0388% | % Change in weight [1, 5]: 0.5425%

Cc1ccc(S(=O)(=O)O)cc1.Cn1ncnc1[C@H]1c2n[nH]c(=O)c3cc(F)cc(c23)N[C@@H]1c1ccc(F)cc1 [compound 7, (8S,9R)-5-fluoro-8-(4-fluorophenyl)-9-(1-methyl-1H-1,2,4-triazol-5-yl)-8,9-dihydro-2H-pyrido[4,3,2-de]phthalazin-3(7H)-one tosylate salt]
% Change in weight ([1]; TGA, start 25.5 °C, stop 334 °C): 26.55% | % Change in weight [1, 4]: 0.2109% | % Change in weight [1, 5]: 2.552%

Cc1ccc(S(=O)(=O)O)cc1.Cn1ncnc1[C@H]1c2n[nH]c(=O)c3cc(F)cc(c23)N[C@@H]1c1ccc(F)cc1 [compound 8, (8S,9R)-5-fluoro-8-(4-fluorophenyl)-9-(1-methyl-1H-1,2,4-triazol-5-yl)-8,9-dihydro-2H-pyrido[4,3,2-de]phthalazin-3(7H)-one tosylate salt]
% Change in weight ([1]; TGA, start 24.9 °C, stop 274.33 °C): 2.071% | % Change in weight ([1]; TGA, start 24.9 °C, stop 320 °C): 19.97% | % Change in weight ([1]; TGA, start 24.9 °C, stop 335 °C): 34.56% | % Change in weight ([1]; TGA, start 24.9 °C, stop 363.03 °C): 50.39% | % Change in weight ([1]; TGA, start 24.9 °C, stop 394.92 °C): 54.39% | % Change in weight [1, 4]: 0.06696% | weight gain (DVA) ([2]; from 0%-95% RH): 0.1574%

Cn1ncnc1[C@H]1c2n[nH]c(=O)c3cc(F)cc(c23)N[C@@H]1c1ccc(F)cc1 [compound 11, (8S,9R)-5-fluoro-8-(4-fluorophenyl)-9-(1-methyl-1H-1,2,4-triazol-5-yl)-8,9-dihydro-2H-pyrido[4,3,2-de]phthalazin-3(7H)-one]
weight loss ([1]; TGA at 134.8 °C): 5.72%

Cn1ncnc1[C@H]1c2n[nH]c(=O)c3cc(F)cc(c23)N[C@@H]1c1ccc(F)cc1 [compound 12, (8S,9R)-5-fluoro-8-(4-fluorophenyl)-9-(1-methyl-1H-1,2,4-triazol-5-yl)-8,9-dihydro-2H-pyrido[4,3,2-de]phthalazin-3(7H)-one]
weight loss ([1]; TGA at 139.06 °C): 7.034%

Cn1ncnc1[C@H]1c2n[nH]c(=O)c3cc(F)cc(c23)N[C@@H]1c1ccc(F)cc1 [compound 19, (8S,9R)-5-fluoro-8-(4-fluorophenyl)-9-(1-methyl-1H-1,2,4-triazol-5-yl)-8,9-dihydro-2H-pyrido[4,3,2-de]phthalazin-3(7H)-one]
Weight Change ([1]; TGA at 161 °C): 4.256% | Weight Change ([3]; TGA at 120 °C): 1.054% | Weight Change ([3]; TGA at 174 °C): 5.977% | Weight Change ([3]; TGA at 185 °C): 7.82% | Weight Change ([3]; TGA at 238 °C): 8.874%

Cn1ncnc1[C@H]1c2n[nH]c(=O)c3cc(F)cc(c23)N[C@@H]1c1ccc(F)cc1 [compound 20, (8S,9R)-5-fluoro-8-(4-fluorophenyl)-9-(1-methyl-1H-1,2,4-triazol-5-yl)-8,9-dihydro-2H-pyrido[4,3,2-de]phthalazin-3(7H)-one]
Weight Change ([1]; TGA at 174.03 °C): 3.167% | Weight Change ([3]; TGA at 120 °C): 1.926% | Weight Change ([3]; TGA at 189.67 °C): 3.234% | Weight Change ([3]; TGA at 256.48 °C): 3.448%

Cn1ncnc1[C@H]1c2n[nH]c(=O)c3cc(F)cc(c23)N[C@@H]1c1ccc(F)cc1 [compound 21, (8S,9R)-5-fluoro-8-(4-fluorophenyl)-9-(1-methyl-1H-1,2,4-triazol-5-yl)-8,9-dihydro-2H-pyrido[4,3,2-de]phthalazin-3(7H)-one]
weight loss ([1]; TGA at 142.46 °C): 3.7% | weight loss ([1]; TGA at 256.48 °C): 4.259%

Cn1ncnc1[C@H]1c2n[nH]c(=O)c3cc(F)cc(c23)N[C@@H]1c1ccc(F)cc1 [compound 24, (8S,9R)-5-fluoro-8-(4-fluorophenyl)-9-(1-methyl-1H-1,2,4-triazol-5-yl)-8,9-dihydro-2H-pyrido[4,3,2-de]phthalazin-3(7H)-one]
weight loss ([1]; TGA at 223.8 °C): 17.47% | weight loss ([1]; TGA, ambient to 120 °C): 0.9388%
